# Results from US7943636B2 (dated 2011).
row,SMILES,melting point
1,CCn1nc2c(N)nc3ccccc3c2c1CC1(O)CCN(C(C)=O)CC1,231 to 232.5 °C
2,CCn1nc2c(N)nc3ccccc3c2c1CC1(O)CCN(S(C)(=O)=O)CC1,268 to 270 °C
3,CCCNC(=O)N1CCC(O)(Cc2c3c(nn2CC)c(N)nc2ccccc23)CC1,208.5 to 210 °C
4,CCn1nc2c(N)nc3c(c2c1CC1(O)CCCCC1)CCCC3,232 to 234 °C
5,Cn1nc2c(N)nc3ccccc3c2c1CC1(F)CCN(S(C)(=O)=O)CC1,283 to 285 °C
6,CC(=O)N1CCC(F)(Cc2c3c(nn2C)c(N)nc2ccccc23)CC1,241 to 243 °C
7,CC(C)NC(=O)N1CCC(F)(Cc2c3c(nn2C)c(N)nc2ccccc23)CC1,241 to 244 °C
8,CCn1nc2c(N)nc3ccccc3c2c1CC1(F)CCN(S(C)(=O)=O)CC1,269 to 271 °C
9,CCn1nc2c(N)nc3ccccc3c2c1CC1(F)CCN(C(C)=O)CC1,228 to 230 °C
10,CCn1nc2c(N)nc3ccccc3c2c1CC1(F)CCN(C(=O)NC(C)C)CC1,205 to 207 °C
11,CCCn1nc2c(N)nc3ccccc3c2c1CC1(F)CCN(S(C)(=O)=O)CC1,268 to 270 °C (dec.)
12,CCCn1nc2c(N)nc3ccccc3c2c1CC1(F)CCN(C(=O)NC(C)C)CC1,227 to 229 °C (dec.)

# The remaining lines, values ahead:
row,melting point,SMILES
1,191 to 193 °C,CCCn1nc2c(N)nc3ccccc3c2c1CC1(O)CCC1
2,253 to 255 °C,CCn1nc2c(N)nc3ccccc3c2c1CC1(O)CCOCC1
3,211.5 to 213 °C,CCn1nc2c(N)nc3ccccc3c2c1CC1(O)CCCCC1
4,256 to 259 °C,CCn1nc2c(N)nc3ccccc3c2c1CC1(O)CCCC1
5,245 to 247 °C,CCn1nc2c(N)nc3ccccc3c2c1CC1(O)CCC1
6,251.5 to 255 °C,CCn1nc2c(N)nc3ccccc3c2c1CC1(O)CCSCC1
7,226 to 228 °C,CCn1nc2c(N)nc3ccccc3c2c1CC1CCOCC1
8,209 to 211 °C,CCCn1nc2c(N)nc3ccccc3c2c1CC1(O)CCOCC1
9,218 to 220 °C,CCCn1nc2c(N)nc3ccccc3c2c1CC1CCOCC1
10,252 to 255 °C,CCCn1nc2c(N)nc3ncccc3c2c1CC1CCOCC1
11,189 to 190 °C,COCCn1nc2c(N)nc3ccccc3c2c1CC1CCOCC1
12,230 to 233 °C,COCCn1nc2c(N)nc3ncccc3c2c1CC1CCOCC1
13,252 to 254 °C,Cn1nc2c(N)nc3ccccc3c2c1CC1(F)CCOCC1
14,260 to 262 °C (dec.),Cn1nc2c(N)nc3ccccc3c2c1CC1(O)CCOCC1
15,275 to 277 °C,CCn1nc2c(N)nc3ccccc3c2c1CC1(F)CCOCC1
